From ChEMBL document CHEMBL5620428, “Discovery of tetrahydroisoquinolineindole derivatives as first dual PRMT5 inhibitors/hnRNP E1 upregulators: Design, synthesis and biological evaluation” (Eur J Med Chem, 2023)
pIC50: −log10 of the molar value. Active and inactive are the calls of the source. No cut-off for these calls is given here.

Key:
[1] = target: Protein arginine N-methyltransferase 5 (Homo sapiens, UniProt O14744); experiment: Inhibition of PRMT5 (unknown origin)
A549 [2] = experiment: Antiproliferative activity against human A549 cells assessed as reduction in cell viability at 25 uM incubated for 24 hrs by SRB assay; type: functional, cell-based
[3] = Antiproliferative activity against human L02 cells assessed as inhibition of cell growth incubated for 24 hrs by SRB assay; type: toxicity, cell-based
MDA-MB-231 = experiment: Antiproliferative activity against human MDA-MB-231 cells assessed as inhibition of cell growth incubated for 24 hrs by SRB assay; type: functional, cell-based; details: MDA-MB-231, 24 h
A549 [4] = experiment: Antiproliferative activity against human A549 cells assessed as inhibition of cell growth incubated for 24 hrs by SRB assay; type: functional, cell-based; details: A549, 24 h
MCF7 = experiment: Antiproliferative activity against human MCF7 cells assessed as inhibition of cell growth incubated for 24 hrs by SRB assay; type: functional, cell-based; details: MCF7, 24 h
HepG2 = experiment: Antiproliferative activity against human HepG2 cells assessed as inhibition of cell growth incubated for 24 hrs by SRB assay; type: functional, cell-based; details: HepG2, 24 h
A549 [5] = experiment: Inhibition of cell migration human A549 cells assessed as decrease in migration distance at 12.5 to 25 uM incubated upto 12 hrs by wound healing assay; type: functional, cell-based; details: dose 12.5-25 µM
[6] = target: Protein arginine N-methyltransferase 1 (Homo sapiens, UniProt Q99873); experiment: Inhibition of PRMT1 (unknown origin)
A549 [7] = experiment: Induction of apoptosis in human A549 cells transfected in hnRNP E1 siRNA assessed as reduction in cell number incubated for 24 hrs by Hoechst 33258 staining based analysis; type: functional
A549 [8] = experiment: Induction of apoptosis in human A549 cells assessed as nuclear fragmentation incubated for 24 hrs by Hoechst 33342 staining based analysis; type: functional, cell-based; details: dose 12.5-50 µM
A549 [9] = experiment: Anticancer activity against human A549 cells assessed as decrease in cell number incubated for 24 hrs by SRB assay; type: functional, cell-based; details: dose 12.5-50 µM
A549 [10] = experiment: Induction of apoptosis in human A549 cells at 2.5 to 50 uM incubated for 24 hrs by Hoechst 33342 staining based analysis; type: functional; details: dose 2.5-50 µM
[11] = Metabolic stability in human liver microsome assessed as half life measured upto 4 hrs in presence of NADPH by LC-MS/MS analysis; type: ADME; details: liver microsomes
[12] = target: T1, Histone-arginine methyltransferase CARM1 (Homo sapiens, UniProt Q86X55); experiment: Inhibition of PRMT4 (unknown origin)
T1 sequence (Q86X55 whole entry): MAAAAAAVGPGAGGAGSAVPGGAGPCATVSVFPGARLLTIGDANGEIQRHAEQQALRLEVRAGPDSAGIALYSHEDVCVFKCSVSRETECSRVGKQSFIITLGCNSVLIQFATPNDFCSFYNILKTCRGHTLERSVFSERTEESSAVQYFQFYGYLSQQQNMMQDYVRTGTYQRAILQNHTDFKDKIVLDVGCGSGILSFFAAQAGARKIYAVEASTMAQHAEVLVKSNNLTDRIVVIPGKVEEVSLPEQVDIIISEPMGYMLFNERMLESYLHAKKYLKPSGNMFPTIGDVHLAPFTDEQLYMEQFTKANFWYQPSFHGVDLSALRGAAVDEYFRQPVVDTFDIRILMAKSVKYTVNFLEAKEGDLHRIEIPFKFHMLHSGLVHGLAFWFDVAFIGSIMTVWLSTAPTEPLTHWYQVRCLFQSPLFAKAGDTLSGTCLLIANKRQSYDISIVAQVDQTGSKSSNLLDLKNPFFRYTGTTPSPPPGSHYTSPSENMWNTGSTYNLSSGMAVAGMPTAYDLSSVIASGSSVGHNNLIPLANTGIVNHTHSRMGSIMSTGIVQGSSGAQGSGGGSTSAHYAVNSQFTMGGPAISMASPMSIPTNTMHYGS

[13] = Metabolic stability in rat liver microsome assessed as half life measured upto 4 hrs in presence of NADPH by LC-MS/MS analysis; type: ADME; details: liver microsomes
A549 [14] = experiment: Inhibition of cell migration human A549 cells transfected with hnRNP E1 siRNA incubated upto 12 hrs by wound healing assay; type: functional, cell-based
A549 [15] = experiment: Upregulation of hnRNP E1 gene expression in human A549 cells at 12.5 to 50 uM incubated for 24 hrs by Western blot analysis; type: functional, cell-based; details: dose 12.5-50 µM

Chain of Protein arginine N-methyltransferase 5 (O14744 whole entry): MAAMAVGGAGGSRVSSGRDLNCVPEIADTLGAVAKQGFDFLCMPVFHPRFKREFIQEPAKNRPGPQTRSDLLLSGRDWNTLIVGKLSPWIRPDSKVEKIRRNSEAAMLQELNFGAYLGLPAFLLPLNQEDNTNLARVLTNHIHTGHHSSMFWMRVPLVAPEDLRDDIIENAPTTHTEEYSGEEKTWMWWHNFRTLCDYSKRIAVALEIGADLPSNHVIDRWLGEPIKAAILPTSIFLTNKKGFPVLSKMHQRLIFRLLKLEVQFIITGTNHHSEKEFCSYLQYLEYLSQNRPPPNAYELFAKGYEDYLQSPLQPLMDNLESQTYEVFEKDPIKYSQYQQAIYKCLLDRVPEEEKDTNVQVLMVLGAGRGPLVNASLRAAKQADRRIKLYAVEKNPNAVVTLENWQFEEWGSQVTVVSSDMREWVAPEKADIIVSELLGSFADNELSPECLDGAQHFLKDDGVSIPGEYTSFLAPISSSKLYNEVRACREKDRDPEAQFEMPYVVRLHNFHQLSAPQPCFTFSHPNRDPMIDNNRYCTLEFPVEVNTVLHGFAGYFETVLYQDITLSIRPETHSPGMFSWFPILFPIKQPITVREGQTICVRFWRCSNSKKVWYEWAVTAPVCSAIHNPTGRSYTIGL
Chain of Protein arginine N-methyltransferase 1 (Q99873 whole entry): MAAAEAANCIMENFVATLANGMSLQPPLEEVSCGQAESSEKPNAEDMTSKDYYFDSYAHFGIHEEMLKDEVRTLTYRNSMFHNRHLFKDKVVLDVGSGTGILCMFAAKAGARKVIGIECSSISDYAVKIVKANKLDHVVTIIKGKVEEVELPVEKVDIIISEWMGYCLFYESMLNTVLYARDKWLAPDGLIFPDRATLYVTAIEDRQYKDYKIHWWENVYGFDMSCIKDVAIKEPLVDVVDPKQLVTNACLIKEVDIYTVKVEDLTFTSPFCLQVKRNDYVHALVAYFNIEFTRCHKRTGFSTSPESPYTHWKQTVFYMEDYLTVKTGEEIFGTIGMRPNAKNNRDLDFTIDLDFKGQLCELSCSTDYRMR

Row | pIC50 [1] | Compound | Activity (A549 [2]) | also measured
1 | 5.89 | Cc1cc2ccccc2n1C[C@H](O)CN1CCc2ccccc2C1 | Active | –
2 | 4.21 | COc1cc2c(cc1OC)CN(C[C@@H](O)Cn1ccc3ccc(Br)cc31)CC2 | Active | –
3 | 4.44 | COc1ccc2c(c1)CCN(C[C@@H](O)Cn1ccc3cc(OC)ccc31)C2 | Active | –
4 | 4.83 | COc1ccc2c(ccn2C[C@H](O)CN2CCc3ccccc3C2C)c1 (some centres undefined) | Active | –
5 | 4.29 | COc1ccc2c(ccn2C[C@H](O)CN2CCc3cc(Br)ccc3C2)c1 | Active | –
6 | 5.68 | N#Cc1cn(C[C@H](O)CN2CCc3ccccc3C2)c2ccccc12 | Active | –
7 | 5.49 | Cc1cn(C[C@H](O)CN2CCc3ccccc3C2)c2ccccc12 | Active | –
8 | 5.39 | N#CCc1cn(C[C@H](O)CN2CCc3ccccc3C2)c2ccccc12 | Active | –
9 | 5.19 | Cc1ccc2ccn(C[C@H](O)CN3CCc4ccccc4C3)c2c1 | Active | –
10 | 5.61 | O[C@H](CN1CCc2cc(Br)ccc2C1)Cn1ccc2ccc(Br)cc21 | Active | –
11 | 4.50 | COc1ccc2c(c1)CCN(C[C@@H](O)Cn1ccc3ccc(Br)cc31)C2 | Active | –
12 | 6.42 | O[C@H](CN1CCc2ccccc2C1)Cn1ccc2ccc(Br)cc21 | Active | IC50 at 24 h [3]: > 100 µM; pIC50 (MDA-MB-231): 4.22; pIC50 (A549 [4]): 4.53; pIC50 (MCF7): 4.60; pIC50 (HepG2): 4.78
13 | 6.21 | Cc1ccc2c(ccn2C[C@H](O)CN2CCc3ccccc3C2)c1 | Active | –
14 | 6.07 | O[C@H](CN1CCc2ccccc2C1)Cn1ccc2ccccc21 | Active | –
15 | 5.60 | CC(=O)c1cn(C[C@H](O)CN2CCc3ccccc3C2)c2ccccc12 | Active | –
16 | 5.77 | O[C@H](CN1CCc2ccccc2C1)Cn1ccc2c(F)cccc21 | Active | –
17 | – | Oc1ccc2c(c1)CCN(C[C@@H](O)Cn1ccc3ccc(Br)cc31)C2 | Active | Activity (A549 [5]): Active; pIC50 [6]: 4.99; IC50 at 24 h [3]: > 100 µM; Activity (A549 [7]): Active; Activity (A549 [8]): Dose-Dependent Effect; pIC50 (MDA-MB-231): 4.67; pIC50 (A549 [4]): 4.85; Activity (A549 [9]): Dose-Dependent Effect; pIC50 (MCF7): 4.54; Activity (A549 [10]): 68%; half-life [11]: 21.8 min; pIC50 [12]: < 4.70; half-life [13]: 4.7 min; Activity (A549 [14]): inactive; pIC50 (HepG2): 4.24; Activity (A549 [15]): Active
